The source of these data is PMC8154581, “Discovery of Novel Thiophene-arylamide Derivatives as DprE1 Inhibitors with Potent Antimycobacterial Activities” (Journal of Medicinal Chemistry, 2021).

≈ marks a conversion by molar mass, not a printed value. Bounds are passed on as bounds.

What all share (experiment): microbe, parasite or virus in culture
Format in all cases: cell-based

Assay [1] relates to M. tuberculosis clinical isolate 14862. The settings on record: Mycobacterium tuberculosis, read-out: MIC 14862.
The test system of assay [2] is M. tuberculosis clinical isolate 13946. The settings on record: Mycobacterium tuberculosis, read-out: MIC 13946.
The test system of assay [3] is bedaquiline-resistant strain of M. tuberculosis. The settings on record: Mycobacterium tuberculosis, read-out: MIC bedaquiline-resistant strain.
The subject of assay [4] is PBTZ169-resistant strain of M. tuberculosis. Conditions: Mycobacterium tuberculosis, read-out: MIC PBTZ169-resistant strain.

Take `CCOC(=O)NC(=O)c1ccsc1NC(=O)c1ccc(C(=O)N2CCCCC2)c(F)c1` [Compound 24f, Ethyl (2-(3-Fluoro-4-(piperidine-1-carbonyl)benzamido)thiophene-3-carbonyl)carbamate]: the MIC in assay [1] and in assay [2] was 0.031 µg/mL (≈ 0.0693 µM) each time.

Regarding `NNC(=O)c1ccncc1` [INH, isoniazid, reference compound], the MIC in assay [1] was over 10 µg/mL; in assay [2], 2.46 µg/mL (≈ 17.9 µM).

For `COc1nc2ccc(Br)cc2cc1[C@@H](c1ccccc1)[C@@](O)(CCN(C)C)c1cccc2ccccc12` [bedaquiline, reference compound], in assay [3], the MIC worked out at 2.24 µg/mL (≈ 4.03 µM).

For the compound `O=C(Nc1sccc1C(=O)Nc1nccc(C(F)(F)F)n1)c1ccc(C(=O)N2CCCCC2)cc1` [Compound 25l, 2-(4-(Piperidine-1-carbonyl)benzamido)-N-(4-(trifluoromethyl)pyrimidin-2-yl)thiophene-3-carboxamide], the MIC in assay [1] was found to be 0.48 µg/mL (≈ 0.953 µM); in assay [2] it was 0.94 µg/mL (≈ 1.87 µM).

`O=c1nc(N2CCN(CC3CCCCC3)CC2)sc2c([N+](=O)[O-])cc(C(F)(F)F)cc12` [PBTZ169]: the MIC in assay [4] was determined as 0.005 µg/mL (≈ 0.011 µM).

As for `CCOC(=O)NC(=O)c1ccsc1NC(=O)c1ccc(C(=O)N2CCCCC2)s1` [Compound 24j, Ethyl (2-(5-(Piperidine-1-carbonyl)thiophene-2-carboxamido)thiophene-3-carbonyl)carbamate], the MIC in assay [1] and in assay [2] was 0.12 µg/mL (≈ 0.276 µM) each time.

For `CCOC(=O)NC(=O)c1ccsc1NC(=O)c1coc(C(=O)N2CCCCC2)c1` [Compound 24k, Ethyl (2-(5-(Piperidine-1-carbonyl)furan-3-carboxamido)thiophene-3-carbonyl)carbamate], the values for the MIC in assay [1] and in assay [2] were 0.23 µg/mL (≈ 0.548 µM) and 0.44 µg/mL (≈ 1.05 µM), respectively.

With `COC(=O)NC(=O)c1ccsc1NC(=O)c1ccc(C(=O)N2CCCCC2)c(F)c1` [Compound 25b, Methyl (2-(3-Fluoro-4-(piperidine-1-carbonyl)benzamido)thiophene-3-carbonyl)carbamate], the figures for the MIC in assay [1] and in assay [2] were 0.12 µg/mL (≈ 0.277 µM) and 0.062 µg/mL (≈ 0.143 µM), respectively.

For the compound `CCOC(=O)NC(=O)c1ccsc1NC(=O)c1ccc(C(=O)N2CCCCC2)cc1` [Compound 23j, Ethyl (2-(4-(Piperidine-1-carbonyl)benzamido)thiophene-3-carbonyl)carbamate], the MIC in assay [1] came out at 0.059 µg/mL (≈ 0.137 µM); in assay [2] it was 0.082 µg/mL (≈ 0.191 µM).

Regarding `CCOC(=O)NC(=O)c1ccsc1NC(=O)c1nc2ccccc2s1` [TCA1, reference compound], the MIC in assay [1] was 0.48 µg/mL (≈ 1.28 µM); in assay [2], 0.95 µg/mL (≈ 2.53 µM).

In the case of `COC(=O)NC(=O)c1ccsc1NC(=O)c1ccc(C(=O)N2CCCCC2)cc1` [Compound 25a, Methyl (2-(4-(Piperidine-1-carbonyl)benzamido)thiophene-3-carbonyl)carbamate], the MIC in assay [1] and in assay [2] was 0.24 µg/mL (≈ 0.578 µM) in each case.
